Bounds are passed on as bounds.

Targets include PIK3CA (human) (UniProt P42336); PIK3CD (Human) (UniProt O00329); PIK3CG (human) (UniProt P48736).
What all share (test): Enzyme Assay

Chain of PIK3CA (human) (P42336 whole entry, looked up): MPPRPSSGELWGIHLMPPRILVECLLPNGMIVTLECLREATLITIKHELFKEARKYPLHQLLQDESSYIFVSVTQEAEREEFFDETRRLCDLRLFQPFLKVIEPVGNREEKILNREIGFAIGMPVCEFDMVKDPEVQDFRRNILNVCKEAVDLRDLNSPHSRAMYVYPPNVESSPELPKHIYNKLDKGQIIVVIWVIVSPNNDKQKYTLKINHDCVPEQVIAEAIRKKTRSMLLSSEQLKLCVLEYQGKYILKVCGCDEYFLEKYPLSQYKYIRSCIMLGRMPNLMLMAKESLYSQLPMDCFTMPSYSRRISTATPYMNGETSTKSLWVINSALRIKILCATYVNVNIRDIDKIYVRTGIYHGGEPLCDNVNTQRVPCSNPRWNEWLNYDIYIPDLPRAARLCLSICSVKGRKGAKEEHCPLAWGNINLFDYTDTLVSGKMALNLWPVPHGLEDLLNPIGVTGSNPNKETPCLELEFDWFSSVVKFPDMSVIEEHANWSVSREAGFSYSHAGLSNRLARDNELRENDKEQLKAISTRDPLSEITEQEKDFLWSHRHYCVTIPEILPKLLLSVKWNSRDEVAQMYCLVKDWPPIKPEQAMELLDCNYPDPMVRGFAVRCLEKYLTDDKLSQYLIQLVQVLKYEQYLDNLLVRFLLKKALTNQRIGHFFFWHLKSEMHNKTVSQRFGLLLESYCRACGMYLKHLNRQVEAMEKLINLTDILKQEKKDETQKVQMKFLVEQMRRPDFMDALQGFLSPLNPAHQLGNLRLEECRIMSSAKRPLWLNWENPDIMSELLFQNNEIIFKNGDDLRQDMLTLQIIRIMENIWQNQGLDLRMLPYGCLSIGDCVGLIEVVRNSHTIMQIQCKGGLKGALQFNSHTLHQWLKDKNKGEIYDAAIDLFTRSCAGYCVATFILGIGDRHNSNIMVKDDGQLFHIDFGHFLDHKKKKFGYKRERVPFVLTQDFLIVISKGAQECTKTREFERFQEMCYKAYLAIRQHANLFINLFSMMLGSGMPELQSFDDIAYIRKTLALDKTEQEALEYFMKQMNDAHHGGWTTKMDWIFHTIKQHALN
Chain of PIK3CD (Human) (O00329 whole entry, looked up): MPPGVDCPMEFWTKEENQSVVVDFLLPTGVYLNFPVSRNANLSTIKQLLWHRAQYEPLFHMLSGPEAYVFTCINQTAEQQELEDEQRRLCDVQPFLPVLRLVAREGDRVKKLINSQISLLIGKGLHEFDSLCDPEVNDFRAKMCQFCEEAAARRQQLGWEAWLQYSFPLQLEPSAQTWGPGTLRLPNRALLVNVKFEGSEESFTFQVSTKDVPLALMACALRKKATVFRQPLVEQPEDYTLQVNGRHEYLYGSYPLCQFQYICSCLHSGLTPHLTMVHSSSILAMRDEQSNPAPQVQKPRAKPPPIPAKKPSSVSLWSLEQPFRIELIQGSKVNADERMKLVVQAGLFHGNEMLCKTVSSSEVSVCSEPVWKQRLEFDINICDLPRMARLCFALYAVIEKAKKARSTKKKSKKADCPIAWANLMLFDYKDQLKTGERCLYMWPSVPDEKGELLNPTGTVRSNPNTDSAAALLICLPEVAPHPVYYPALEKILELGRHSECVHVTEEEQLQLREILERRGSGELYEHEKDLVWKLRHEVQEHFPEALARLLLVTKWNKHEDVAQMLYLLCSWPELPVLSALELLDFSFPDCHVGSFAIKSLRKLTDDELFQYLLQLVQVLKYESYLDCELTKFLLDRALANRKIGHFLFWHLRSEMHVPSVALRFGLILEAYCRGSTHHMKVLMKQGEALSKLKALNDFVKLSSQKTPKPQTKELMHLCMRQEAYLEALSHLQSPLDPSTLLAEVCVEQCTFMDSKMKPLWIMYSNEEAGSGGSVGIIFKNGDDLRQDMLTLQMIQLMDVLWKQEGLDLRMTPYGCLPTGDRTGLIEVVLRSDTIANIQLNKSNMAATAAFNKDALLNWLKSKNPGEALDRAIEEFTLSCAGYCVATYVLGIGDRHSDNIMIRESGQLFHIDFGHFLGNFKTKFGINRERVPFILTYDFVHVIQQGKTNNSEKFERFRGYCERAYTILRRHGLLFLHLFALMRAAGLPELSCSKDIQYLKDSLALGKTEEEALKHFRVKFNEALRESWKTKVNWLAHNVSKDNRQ
Chain of PIK3CG (human) (P48736 whole entry, looked up): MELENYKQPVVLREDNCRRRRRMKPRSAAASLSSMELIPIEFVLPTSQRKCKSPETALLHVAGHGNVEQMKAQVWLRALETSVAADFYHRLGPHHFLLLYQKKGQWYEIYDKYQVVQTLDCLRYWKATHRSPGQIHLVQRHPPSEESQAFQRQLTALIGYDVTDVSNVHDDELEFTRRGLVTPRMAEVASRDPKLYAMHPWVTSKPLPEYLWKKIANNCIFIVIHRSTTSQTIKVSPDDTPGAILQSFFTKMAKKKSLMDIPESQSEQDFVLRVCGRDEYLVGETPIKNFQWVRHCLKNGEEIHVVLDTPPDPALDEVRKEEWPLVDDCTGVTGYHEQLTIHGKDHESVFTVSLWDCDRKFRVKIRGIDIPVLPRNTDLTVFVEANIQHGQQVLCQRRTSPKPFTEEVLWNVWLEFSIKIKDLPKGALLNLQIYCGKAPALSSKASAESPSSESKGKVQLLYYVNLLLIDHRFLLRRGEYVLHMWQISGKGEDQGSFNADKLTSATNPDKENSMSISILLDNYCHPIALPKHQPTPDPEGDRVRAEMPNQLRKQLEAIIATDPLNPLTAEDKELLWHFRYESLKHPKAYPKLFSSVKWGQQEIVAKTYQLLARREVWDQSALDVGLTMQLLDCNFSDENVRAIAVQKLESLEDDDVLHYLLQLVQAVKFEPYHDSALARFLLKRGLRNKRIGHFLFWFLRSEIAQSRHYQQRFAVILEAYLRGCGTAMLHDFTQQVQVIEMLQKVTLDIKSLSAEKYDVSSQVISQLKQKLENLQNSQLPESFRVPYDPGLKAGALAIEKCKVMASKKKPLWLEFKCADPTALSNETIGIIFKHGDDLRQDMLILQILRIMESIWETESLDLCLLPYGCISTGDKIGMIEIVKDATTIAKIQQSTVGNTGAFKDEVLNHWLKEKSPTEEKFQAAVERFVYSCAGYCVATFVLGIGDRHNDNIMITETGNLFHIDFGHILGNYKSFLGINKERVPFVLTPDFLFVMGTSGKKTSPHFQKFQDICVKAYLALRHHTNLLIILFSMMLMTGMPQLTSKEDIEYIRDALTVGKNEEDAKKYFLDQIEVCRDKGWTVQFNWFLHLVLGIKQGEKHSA

For the compound `C[C@H](Nc1ncnc2scnc12)c1cc2cccc(-c3cnc4c(c3)CCCO4)c2c(=O)n1-c1ccccc1`, the IC50 (as a rule, the concentration that gives 50% inhibition) on PIK3CA (human) is 0.1 to 1 µM; on PIK3CD (Human), < 0.1 µM; against PIK3CG (human), < 0.1 µM.
Turning to `Cc1cc(-c2cccc3cc([C@H](C)Nc4ncnc5scnc45)n(-c4ccccc4)c(=O)c23)ccn1`, the IC50 was 0.1 to 1 µM against PIK3CA (human), < 0.1 µM on PIK3CD (Human) and < 0.1 µM at PIK3CG (human).
Turning to `C[C@H](Nc1ncnc2scnc12)c1cc2cccc(-c3cccnc3)c2c(=O)n1-c1ccccc1`, the IC50 against PIK3CD (Human) and against PIK3CG (human) was < 0.1 µM in each case.
As to `Cc1ccnc2cc(C(C)Nc3ncnc4scnc34)n(-c3ccccc3)c(=O)c12` (configuration not stated), the IC50 was > 10 µM on PIK3CA (human), < 0.1 µM against PIK3CD (Human) and < 0.1 µM at PIK3CG (human).
On to `Cc1c(-c2cccc3cc([C@H](C)Nc4ncnc5scnc45)n(-c4ccccc4)c(=O)c23)cnn1C`, for which the IC50 against PIK3CD (Human) is < 0.1 µM; against PIK3CG (human), 0.1 to 1 µM.
In the case of `COc1cnccc1-c1cccc2cc([C@H](C)Nc3ncnc4scnc34)n(-c3ccccc3)c(=O)c12`, the IC50 on PIK3CD (Human) and on PIK3CG (human) was 0.1 to 1 µM each time.
With `Cc1cncc(-c2cccc3cc([C@H](C)Nc4ncnc5scnc45)n(-c4ccccc4)c(=O)c23)c1`, the figures for the IC50 on PIK3CA (human), against PIK3CD (Human) and at PIK3CG (human) were 0.1 to 1 µM, < 0.1 µM and < 0.1 µM, respectively.
`Cc1ncc(-c2cccc3cc([C@H](C)Nc4ncnc5scnc45)n(C4CC4)c(=O)c23)cn1`: the IC50 at PIK3CD (Human) was < 0.1 µM; against PIK3CG (human), 0.1 to 1 µM.
As for `Cc1nn(C)cc1-c1cccc2cc([C@H](C)Nc3ncnc4scnc34)n(-c3ccccc3)c(=O)c12`, the IC50 against PIK3CA (human) is 0.1 to 1 µM; against PIK3CD (Human) it was < 0.1 µM; against PIK3CG (human), < 0.1 µM.
Turning to `C[C@H](Nc1ncnc2scnc12)c1cc2cccc(-c3ccc(N)nc3)c2c(=O)n1-c1ccccc1`, the figures for the IC50 on PIK3CA (human), against PIK3CD (Human) and on PIK3CG (human) were 0.1 to 1 µM, < 0.1 µM and < 0.1 µM, respectively.
Consider `CCCn1cc(-c2cccc3cc([C@H](C)Nc4ncnc5scnc45)n(-c4ccccc4)c(=O)c23)cn1`, for which the IC50 on PIK3CD (Human) was < 0.1 µM; on PIK3CG (human), 0.1 to 1 µM.
The matching figures for `COc1ncc(-c2cccc3cc([C@H](C)Nc4ncnc5scnc45)n(-c4ccccc4)c(=O)c23)cc1C(F)(F)F`: < 0.1 µM and < 0.1 µM.
In the case of `C[C@H](Nc1ncnc2scnc12)c1cc2cccc(-c3cnn(C)c3)c2c(=O)n1-c1cccc(F)c1`, the IC50 against PIK3CD (Human) and against PIK3CG (human) was < 0.1 µM in each case.
As for `COc1ncc(-c2cccc3cc([C@H](C)Nc4ncnc5scnc45)n(-c4ccccc4)c(=O)c23)s1`, the values for the IC50 against PIK3CA (human), against PIK3CD (Human) and at PIK3CG (human) were 0.1 to 1 µM, < 0.1 µM and < 0.1 µM, respectively.
On to `CCn1cc(-c2cccc3cc([C@H](C)Nc4ncnc5scnc45)n(-c4ccccc4)c(=O)c23)cn1`, for which the IC50 against PIK3CD (Human) and at PIK3CG (human) was < 0.1 µM each time.
In the case of `C[C@H](Nc1ncnc2scnc12)c1cc2cccc(-c3ccoc3)c2c(=O)n1-c1ccccc1`, the results for the IC50 on PIK3CA (human), against PIK3CD (Human) and against PIK3CG (human) were 0.1 to 1 µM, < 0.1 µM and < 0.1 µM, respectively.
In the case of `C[C@H](Nc1ncnc2scnc12)c1cc2cccc(/C=C/c3ccccc3)c2c(=O)n1-c1ccccc1`, the IC50 was 0.1 to 1 µM on PIK3CD (Human) and < 0.1 µM at PIK3CG (human).
Take `C[C@H](Nc1ncnc2scnc12)c1cc2cccc(-c3ccc(=O)n(C)c3)c2c(=O)n1-c1ccccc1`: the IC50 against PIK3CA (human) was 0.1 to 1 µM; on PIK3CD (Human), < 0.1 µM; on PIK3CG (human), 0.1 to 1 µM.
In the case of `C[C@H](Nc1nc(Cl)nc2scnc12)c1cc2cccc(-c3cnn(C)c3)c2c(=O)n1-c1ccccc1`, the IC50 was < 0.1 µM against PIK3CD (Human) and 0.1 to 1 µM at PIK3CG (human).
For the compound `CCCCc1cccc2cc([C@H](C)Nc3ncnc4scnc34)n(-c3ccccc3)c(=O)c12`, the IC50 against PIK3CD (Human) and on PIK3CG (human) was < 0.1 µM throughout.
For the compound `COc1ncc(-c2cccc3cc([C@H](C)Nc4ncnc5scnc45)n(C4CC4)c(=O)c23)cn1`, the figures for the IC50 on PIK3CD (Human) and on PIK3CG (human) were < 0.1 µM and 0.1 to 1 µM, respectively.
Turning to `C[C@H](Nc1ncnc2scnc12)c1cc2cccc(Cl)c2c(=O)n1-c1cccc(C(F)(F)F)c1`, the IC50 against PIK3CA (human) is > 10 µM; against PIK3CD (Human), 0.1 to 1 µM; at PIK3CG (human), 0.1 to 1 µM.
As for `Cc1cc(-c2cccc3cc([C@H](C)Nc4ncnc5scnc45)n(-c4ccccc4)c(=O)c23)cnc1F`, the IC50 against PIK3CD (Human) and at PIK3CG (human) was < 0.1 µM throughout.
Turning to `C[C@H](Nc1ncnc2scnc12)c1cc2cccc(-c3cnc4ccoc4c3)c2c(=O)n1-c1ccccc1`, the values for the IC50 against PIK3CA (human), against PIK3CD (Human) and on PIK3CG (human) were 0.1 to 1 µM, < 0.1 µM and < 0.1 µM, respectively.
Take `COc1ncc(-c2cccc3cc([C@H](C)Nc4ncnc5scnc45)n(-c4ccccc4)c(=O)c23)cc1C`: the IC50 against PIK3CD (Human) and on PIK3CG (human) was < 0.1 µM in each case.
With `C[C@H](Nc1ncnc2scnc12)c1cc2cccc(-c3cnc(N)nc3)c2c(=O)n1-c1ccccc1`, the IC50 at PIK3CA (human) was 0.1 to 1 µM; at PIK3CD (Human), < 0.1 µM; against PIK3CG (human) it was < 0.1 µM.
With `C[C@H](Nc1ncnc2scnc12)c1cc2cccc(-c3cnc(OCc4ccccc4)nc3)c2c(=O)n1-c1ccccc1`, the IC50 was < 0.1 µM at PIK3CD (Human) and 0.1 to 1 µM on PIK3CG (human).
`Cc1nsc2cc(C(C)Nc3ncnc4scnc34)n(-c3ccccc3)c(=O)c12` (configuration not stated): the IC50 on PIK3CA (human) was > 10 µM; against PIK3CD (Human), < 0.1 µM.
Take `C[C@H](Nc1ccnc2scnc12)c1cc2cccc(-c3cnn(C)c3)c2c(=O)n1-c1ccccc1`: the IC50 on PIK3CD (Human) and on PIK3CG (human) was < 0.1 µM each time.
Turning to `C[C@H](Nc1ncnc2scnc12)c1cc2cccc(-c3cn[nH]c3)c2c(=O)n1-c1ccccc1`, the IC50 against PIK3CD (Human) and on PIK3CG (human) was < 0.1 µM in each case.
`C[C@H](Nc1ncnc2scnc12)c1cc2cccc(-c3ccnc(C(F)(F)F)c3)c2c(=O)n1-c1ccccc1`: the results for the half-inhibitory concentration (IC50) against PIK3CD (Human) and on PIK3CG (human) were < 0.1 µM and 0.1 to 1 µM, respectively.
On to `COc1ccc(-c2cccc3cc([C@H](C)Nc4ncnc5scnc45)n(-c4ccccc4)c(=O)c23)cc1`, for which the IC50 against PIK3CD (Human) and on PIK3CG (human) was < 0.1 µM throughout.
For the compound `C[C@H](Nc1ncnc2scnc12)c1cc2cccc(-c3cncnc3)c2c(=O)n1-c1ccccc1`, the IC50 on PIK3CD (Human) and against PIK3CG (human) was < 0.1 µM in each case.
Consider `Cc1cc(-c2cccc3cc([C@H](C)Nc4ncnc5scnc45)n(-c4ccccc4)c(=O)c23)cnc1C`, for which the IC50 against PIK3CD (Human) and against PIK3CG (human) was < 0.1 µM throughout.
Regarding `C[C@H](Nc1ncnc2scnc12)c1cc2cccc(-c3cnn(C)c3)c2c(=O)n1C`, the IC50 on PIK3CD (Human) lay in the range of 0.1 to 1 µM.
`COc1ccc(-c2cccc3cc([C@H](C)Nc4ncnc5scnc45)n(-c4ccccc4)c(=O)c23)cn1`: the IC50 at PIK3CD (Human) and against PIK3CG (human) was < 0.1 µM in each case.
As for `C[C@H](Nc1ncnc2scnc12)c1cc2ccccc2c(=O)n1-c1ccccc1`, the IC50 against PIK3CD (Human) and on PIK3CG (human) was < 0.1 µM each time.
For the compound `Cc1ccc(-c2cccc3cc([C@H](C)Nc4ncnc5scnc45)n(-c4ccccc4)c(=O)c23)cn1`, the IC50 against PIK3CD (Human) and against PIK3CG (human) was < 0.1 µM in each case.
For `COc1cccc(-c2cccc3cc([C@H](C)Nc4ncnc5scnc45)n(-c4ccccc4)c(=O)c23)c1`, the IC50 on PIK3CA (human) is 0.1 to 1 µM; against PIK3CD (Human), < 0.1 µM; on PIK3CG (human), < 0.1 µM.
Turning to `COc1ccccc1-c1cccc2cc([C@H](C)Nc3ncnc4scnc34)n(-c3ccccc3)c(=O)c12`, the IC50 is < 0.1 µM on PIK3CD (Human) and 0.1 to 1 µM against PIK3CG (human).

The record behind these values is the Kinase Knowledgebase extract (Sharma et al. 2016).
